One molecule from patent publication US9884063B2, “Amido-substituted azole compounds” (Bayer Pharma Aktiengesellschaft, priority 2014, dated 2018) can be followed below.

For one assay, the target named is T1, TNKS2 (Homo sapiens, UniProt Q9H2K2).
T1 sequence (Q9H2K2 1-1166): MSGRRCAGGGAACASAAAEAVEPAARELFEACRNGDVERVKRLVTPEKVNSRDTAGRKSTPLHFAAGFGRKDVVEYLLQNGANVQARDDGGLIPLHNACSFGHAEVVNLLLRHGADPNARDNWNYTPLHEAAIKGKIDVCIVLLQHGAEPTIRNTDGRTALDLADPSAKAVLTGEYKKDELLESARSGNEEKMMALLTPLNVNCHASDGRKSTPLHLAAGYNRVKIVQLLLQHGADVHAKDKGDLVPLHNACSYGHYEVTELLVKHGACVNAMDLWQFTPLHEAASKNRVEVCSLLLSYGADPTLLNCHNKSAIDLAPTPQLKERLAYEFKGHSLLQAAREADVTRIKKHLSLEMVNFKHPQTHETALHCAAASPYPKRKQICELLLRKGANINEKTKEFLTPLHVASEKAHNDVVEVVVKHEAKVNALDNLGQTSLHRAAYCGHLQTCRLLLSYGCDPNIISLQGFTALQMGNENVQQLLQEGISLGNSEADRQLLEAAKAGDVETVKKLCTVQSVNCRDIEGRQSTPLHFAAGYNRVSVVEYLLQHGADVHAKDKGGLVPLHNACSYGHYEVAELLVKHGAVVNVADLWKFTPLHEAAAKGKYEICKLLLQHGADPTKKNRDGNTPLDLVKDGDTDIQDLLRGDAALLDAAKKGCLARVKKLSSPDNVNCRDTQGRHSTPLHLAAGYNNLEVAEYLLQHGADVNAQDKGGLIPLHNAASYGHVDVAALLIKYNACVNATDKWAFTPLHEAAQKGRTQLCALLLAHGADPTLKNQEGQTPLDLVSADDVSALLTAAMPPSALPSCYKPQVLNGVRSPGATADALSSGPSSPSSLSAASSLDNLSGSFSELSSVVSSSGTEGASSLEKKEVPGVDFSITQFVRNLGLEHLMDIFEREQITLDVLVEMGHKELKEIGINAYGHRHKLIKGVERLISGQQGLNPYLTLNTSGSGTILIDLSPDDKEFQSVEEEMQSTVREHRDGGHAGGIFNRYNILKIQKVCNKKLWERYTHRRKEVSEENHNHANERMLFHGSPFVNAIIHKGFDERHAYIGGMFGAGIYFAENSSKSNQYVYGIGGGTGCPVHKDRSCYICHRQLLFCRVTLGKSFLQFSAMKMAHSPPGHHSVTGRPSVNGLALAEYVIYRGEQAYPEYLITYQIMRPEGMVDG
Briefly: Modified TNKS2 Assay 3 (BPS kit #80578, biotin-NAD+, 96 well). The class given is biochemical. The following applies: human TNKS2, BPS kit #80578, 96 well. In short, it runs like this: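 Commercial kit assay measuring TNKS2-catalysed incorporation of biotin-labelled NAD+ into a protein substrate, detected by streptavidin-HRP chemiluminescence. Run per manufacturer's protocol; IC50 is the concentration halving the normalised signal.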

For assay [1], the system named is wildtype Wnt signaling cascade. Briefly: HEK293 TOP Assay (Super TopFlash luciferase reporter, Wnt-3a stimulated). The following applies: Homo sapiens, HEK293, 16 h, HEK293 TOP reporter cell line, Wnt-3a at EC50, 16 hours incubation, compound dilution series 50 μM to 15 nM. The class given is cell-based. In short, it runs like this:
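Compounds (50 μM down to 15 nM, 3.16-fold steps, in CAFTY buffer pH 7.4, 2 mM Ca2+, 0.01% BSA) tested in parallel on TOP and FOP HEK293 reporter lines to define selective wildtype Wnt inhibition. Pathway driven by recombinant human Wnt-3a applied at 2500–5 ng/ml in two-fold dilutions.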

Take `O=C(Nc1ccc(NC(=O)c2[nH]cnc2C(=O)NCCN2CCCCC2)cn1)c1ccc(F)cc1Cl` [Example 110, N^5-{6-[(2-chloro-4-fluorobenzoyl)amino]pyridin-3-yl}-N^4-[2-(piperidin-1-yl)ethyl]-1H-imidazole-4,5-dicarboxamide]: the IC50 came to 4 nM against TNKS2 and 60 nM in assay [1].
